Where a SMILES comes first, the peptide text is derived from it. [ ]: non-standard residue; d: D form. ξ: configuration not given here. ξW = NC(Cc1c[nH]c2ccccc12)C(=O)O
Structure (SMILES)	logP
CCCCNc1ncnc2c1ncn2C1OC(CO)C(O)C1O (stereo unspecified)	1.1
COc1ccc(C2Cc3cc(SC)ccc3N(CCN(C)C)C(=O)C2OC(C)=O)cc1 (stereo unspecified)	4
Cc1cc2c(ccc3c(C)cc(=O)n(C)c32)o1	3.08
Cc1cc2ccc3occ(C)c3c2oc1=O	2.97
COc1ccc(C2Cc3c(Cl)cccc3N(CCN(C)C)C(=O)C2OC(C)=O)cc1 (stereo unspecified)	4.4
Cc1ccc(Cc2c[nH]cn2)cc1C	2.72
Cn1cnc([N+](=O)[O-])c1S(N)(=O)=O	-0.74
Cc1ccc(-n2c(Cc3c(C)[nH]c4ccccc34)n[nH]c2=S)cc1	3
CN(C)CCOc1c(Cl)cccc1Cl	2.57
NC(Cc1c[nH]c2ccccc12)C(=O)NC(Cc1c[nH]c2ccccc12)C(=O)NC(Cc1c[nH]c2ccccc12)C(=O)O (stereo not drawn) (H-Trp-Trp-Trp-OH; configuration not given here)	0.66
COCCNc1[nH]cnc2ncnc1-2	0.42
CCOc1ccccc1CNc1[nH]cnc2ncnc1-2	2.72
CC(=O)N(O)CCCCCNC(=O)CCC(=O)N(O)CCCCCNC(=O)CCC(=O)N(O)CCCCCNC(=O)CCC(=O)O	-0.51
CCOc1ccc(N)c(OCC)c1	2.19
Cc1ccc(S(=O)(=O)C(=Cc2ccccc2)C(=O)OC(C)C)cc1	3.92
O=C(O)CCCON=C(c1ccccc1)c1ncccn1	1.64
COc1ccc(NC(=O)OCCN2CCCCC2)cc1	2.95
O=S(=O)(NC(=S)N1CCCCC1)c1cnccc1NC1CCCCCC1	4.15
CN(C)C(=O)Nc1cccc(OCc2ccc(Cl)cc2Cl)c1	4.1
CNc1ncnc2[nH]cnc12	0.43
CCCc1c(C)nc2cccc(C)n2c1=O	2.22
Cc1nc2ccccc2c(=O)n1CC(=O)O	0.38

Structure (SMILES)	logP
CN(C(=O)CO)c1c(I)c(C(=O)NCC(O)CO)c(I)c(C(=O)NCC(O)CO)c1I (stereo unspecified)	-2.79
Cc1ccc(C(=O)O)cc1[N+](=O)[O-]	2.35
CC(C)CC(NC(=O)C(NC(=O)C1CCCN1C(=O)C(N)C(C)C)C(C)C)C(=O)O (stereo unspecified) (H-VPVL-OH; configuration not given here)	-1.91
Cn1c(N)nc2c3cccnc3ccc21	1.47
CC(NC(=O)C(N)Cc1c[nH]c2ccccc12)C(=O)O (stereo unspecified)	-1.98
CCOCCCNc1[nH]cnc2ncnc1-2	1.15
CC(CC(=O)c1ccc(-c2ccc(F)cc2F)cc1)C(=O)O (stereo unspecified)	3.78
CC(C)OC(=O)CC(C(=O)OC(C)C)S(=O)(=O)c1ccc([N+](=O)[O-])cc1 (stereo unspecified)	2.18
CCC(C)C(N)C(=O)N1CCCC1C(=O)O (stereo not drawn) (H-Ile-Pro-OH; configuration not given here)	-1.79
OCCN1CCN(CCn2nc3ccccc3n2)CC1	0.43
CC(C)=CCCC(C)=CCCC(=CCCC(C)=CCO)CO	4.7
C#CCN(N=O)C(=O)NCCCC(NC(C)=O)C(=O)NCc1ccccc1 (stereo unspecified)	1.12
COC(=O)c1cc(NC(=O)Cn2c(C)nc3ccccc3c2=O)cc(C(=O)OC)c1	2.98
CC1CC(=O)NN=C1c1ccc(-n2cnc3c2CCCC3)cc1 (stereo unspecified)	2.52
CN(C)CCOC(=O)c1ccc(C(C)(C)C)cc1	3.94
CC(C)CC(NC(=O)C(N)Cc1c[nH]c2ccccc12)C(=O)NC(Cc1ccccc1)C(=O)NC(C)C(=O)NC(C)C(=O)O (stereo unspecified) (H-WLFAA-OH; configuration not given here)	-0.32
O=C1NC(=O)C(c2ccccc2)(c2ccccc2)N1S(=O)(=O)c1ccc(O)cc1	3.58
CCCC(=NOCC)C1=C(O)CC2(CCCC3CCCCC32)OC1=O (stereo unspecified)	5
O=C1C=C(N2CCOCC2)C(=O)N1c1ccc(F)cc1	1.5
Cc1cccc2nc(N)nc(N)c12	1.26
COC(=O)Nc1c(C)cccc1C	1.69
COC(=O)c1ccc2ccc3cccc4ccc1c2c34	4.73

Structure (SMILES)	logP
CC(C)(C)[N+]([O-])=Cc1ccc(Br)cc1	2
CC(C(=O)O)c1ccc(OCc2ccccc2)c(F)c1 (stereo unspecified)	3.61
Cc1nccc2c3ccccc3n(C)c12	3.01
CC(C(=O)O)c1ccc(N2CC3CCCCC3C2=O)cc1 (stereo unspecified)	3.15
Nc1ccn([C@H]2CS[C@@H](CO)O2)c(=O)n1	-0.93
O=c1ccc2ccc3occc3c2s1	2.58
C=CCC(C)(C(=O)OCC)S(=O)(=O)c1ccc([N+](=O)[O-])cc1 (stereo unspecified)	2.3
CC(C)NC(=NC#N)NS(=O)(=O)c1cnccc1NC1CCCCCC1	2.07
O=c1cc(-c2ccccc2)oc2ccc(Cl)cc12	3.92
Cc1cccc2c1OCN(CCO[N+](=O)[O-])C2=O	2.48
CCCOc1ccccc1NC(=O)OCCN1CCCCC1	4.23
COC(=O)C(C)NP(=O)(OCC1C=CC(n2cc(C)c(=O)[nH]c2=O)O1)Oc1ccc(F)cc1 (stereo unspecified)	1.1
CC(C)C(Nc1ccc([N+](=O)[O-])cc1[N+](=O)[O-])C(=O)O (stereo unspecified)	2.88
CNC(C)Cc1ccc2c(c1)OCO2 (stereo unspecified)	2.15
CCCCC(=O)OCC(=O)C1(O)Cc2c(O)c3c(c(O)c2C(OC2CC(N)C(O)C(C)O2)C1)C(=O)c1c(OC)cccc1C3=O (stereo unspecified)	2.56
Cc1csc(Cl)c1NC1=NCCN1	1.18
Cc1ncc([N+](=O)[O-])n1CCN=[N+]=[N-]	0.76
COc1coc(CSC(=S)N(C)C)cc1=O	1.14
O=C1N=C(N2CCOCC2)CN1Cc1c(Cl)cccc1Cl	1.3
CC(Nc1ccc([N+](=O)[O-])cc1[N+](=O)[O-])C(=O)O (stereo unspecified)	2.09
NCC(=O)NC(Cc1c[nH]c2ccccc12)C(N)=O (stereo unspecified) (H-Gly-[ξW]-NH2)	-0.48
CCOc1cccc(CNc2[nH]cnc3ncnc2-3)c1	2.57

Structure (SMILES)	logP
Cc1c2ccoc2cc2oc(=O)ccc12	2.33
CC(C)NC(=NC#N)NS(=O)(=O)c1cnccc1NC1CCCCC1	1.53
CCC(C)C(N)C(=O)NC(Cc1ccc(O)cc1)C(=O)NC(C(=O)NC(C(=O)O)C(C)C)C(C)CC (stereo unspecified) (H-IYIV-OH; configuration not given here)	-1.09
CCC(C)C(NC(=O)C(CC(C)C)NC(=O)C(NC(=O)C(N)CCSC)C(C)CC)C(=O)O (stereo unspecified) (H-MILI-OH; configuration not given here)	-0.49
CCC(=O)NCc1c(O)c(=O)cc(C)n1C	-0.72
COc1c2ccccc2cc2ccccc12	4.36
CCCc1nc(N)nc(N2CCOCC2)n1	0.7
C=CCNC(=O)c1[nH]cc(-c2ccc(Cl)cc2)c1N1CCOCC1	3.7
O=c1ccc2cc3ccsc3cc2o1	2.27
CC(=O)OC(C)(C)C1CCC2(C)CCCC3(CO3)C2C1 (stereo unspecified)	4.08
CC(C)c1cccc(C(C)C)c1NC(=O)CC(=O)c1ccccc1	2.87
CC(=O)N(O)CCCCCNC(=O)CCC(=O)N(O)CCCCCNC(=O)CCC(=O)N(O)CCCCCNC=O	-0.33
CCNC(=NC#N)NS(=O)(=O)c1cnccc1NC1CCCCCCC1	2.05
COC(=O)C(C)NP(=O)(OCC1C=CC(n2cc(C)c(=O)[nH]c2=O)O1)Oc1ccc(Cl)c(Cl)c1 (stereo unspecified)	2.15
O=[N+]([O-])c1ccc(CSc2ncnc3c2ncn3C2OC(CO)C(O)C2O)cc1 (stereo unspecified)	0.54
COc1ccc(C2Cc3ccccc3N(CCN(C)C)C(=O)C2OC(C)=O)cc1 (stereo unspecified)	3.2
Cc1ccccc1CNc1[nH]cnc2ncnc1-2	2.58
CCC(C)SSc1ncc[nH]1 (stereo unspecified)	2.76
COc1cc2ncnc(Nc3cccc(F)c3)c2cc1OC	2.96
CC(C)CNc1ccncc1S(=O)(=O)NC(=NC#N)NC(C)C	0.88

From the OPERA property sets (Mansouri et al. 2018)
